Our source for the Activity values is ChEMBL document CHEMBL3108712, “Viniphenol A, a complex resveratrol hexamer from Vitis vinifera stalks: structural elucidation and protective effects against amyloid-β-induced toxicity in PC12 cells” (J Nat Prod, 2014).

For this assay, the system named is PC-12. The experiment in a line: Neuroprotective activity against amyloid beta (25 to 35)-induced toxicity in rat PC12 cells assessed as cell viability preincubated for 48 hrs with amyloid beta (25 to 35) followed by addition to cell culture measured after 24 hrs by MTT assay. The class given is functional, cell-based. In general terms: Tetrazolium assays rely on reduction of a dye to a coloured formazan, in cell work by metabolically active cells.

Turning to `Oc1ccc([C@@H]2c3c(O)cc(O)cc3[C@H]3c4c(cc(O)cc4[C@@H]2[C@@H](c2ccc(O)cc2)[C@@H]2c4cc(O)cc5c4[C@H](c4cc(O)cc(O)c4[C@@H](c4ccc(O)cc4)[C@@H]2c2cc(O)cc4c2[C@H](c2cc(O)cc(O)c2)[C@@H](c2ccc(O)cc2)O4)[C@@H](c2ccc(O)cc2)O5)O[C@@H]3c2ccc(O)cc2)cc1`, the Activity result is “Dose-dependent effect”.
